Literature values, collected in US11453692B2, “Non-caloric sweeteners and methods for synthesizing” (Conagen Inc., priority 2014, dated 2022).

Conditions: sweetness relative to sucrose

Row | Compound | times sweeter than sucrose
1 | Stevioside | 100-150 times
2 | C=C1C[C@@]23CCC4[C@](C)(C(=O)OC5OC(CO)C(O)C(O)C5O)CCC[C@@]4(C)[C@@H]2CC(OC2OC(CO)C(O)C(OC4OC(CO)C(O)C(O)C4O)C2OC2OC(C)C(O)C(O)C2O)C1C3 (some centres unmarked) [Rebaudioside C] | 40-60 times
